Results reported in ChEMBL document CHEMBL5724914, “Linking interpersonal differences in gut microbiota composition and drug biotransformation activity” (2024).

What was measured:
[1] = (§1) The drug is tested on WLS-310 corresponding to human gut metagenome with ENA study accession number: PRJEB37062 and ENA sample accession number: ERS12561785 for biotransformation under anaerobic condition. The drug concentrations were measured over 9 timepoints collected between 0 and 24 hours of incubation by liquid-chromatography-coupled mass spectrometry (LC–MS); conditions: 2 µM
[2] = as §1, with “WLS-240” for “WLS-310”, “ERS12561773” for “ERS12561785”; conditions: 2 µM
[3] = as §1, with “Z-004” for “WLS-310”, “to” for “to human gut”, “ERS12561804” for “ERS12561785”; conditions: 2 µM
[4] = human gut metagenome, 24 h, 2 µM
[5] = as §1, with “WLS-010” for “WLS-310”, “ERS12561743” for “ERS12561785”; conditions: 2 µM
[6] = as §1, with “Z-026” for “WLS-310”, “to” for “to human gut”, “ERS12561825” for “ERS12561785”; conditions: 2 µM
[7] = as §1, with “WLS-039” for “WLS-310”, “ERS12561746” for “ERS12561785”; conditions: 2 µM
[8] = human gut metagenome, 24 h, 2 µM; remark: listed apart in the source
[9] = human gut metagenome, 24 h, 2 µM; remark: listed apart in the source
[10] = human gut metagenome, 24 h, 2 µM; remark: listed apart in the source
[11] = as §1, with “WLS-220” for “WLS-310”, “ERS12561769” for “ERS12561785”; conditions: 2 µM
[12] = as §1, with “WLS-069” for “WLS-310”, “ERS12561748” for “ERS12561785”; conditions: 2 µM
[13] = as §1, with “WLS-052” for “WLS-310”, “ERS12561747” for “ERS12561785”; conditions: 2 µM
[14] = human gut metagenome, 24 h, 2 µM; remark: listed apart in the source
[15] = human gut metagenome, 24 h, 2 µM; remark: listed apart in the source
[16] = human gut metagenome, 24 h, 2 µM; remark: listed apart in the source
[17] = human gut metagenome, 24 h, 2 µM; remark: listed apart in the source
[18] = human gut metagenome, 24 h, 2 µM; remark: listed apart in the source
[19] = as §1, with “WLS-073” for “WLS-310”, “ERS12561749” for “ERS12561785”; conditions: 2 µM
[20] = as §1, with “Z-017” for “WLS-310”, “mouse” for “human”, “ERS12561816” for “ERS12561785”; conditions: 2 µM
Also: call rule not given here.

Compound | Bacterial Biotransformation [1] | Bacterial Biotransformation [2] | Bacterial Biotransformation [3] | Bacterial Biotransformation [4] | Bacterial Biotransformation [5] | Bacterial Biotransformation [6] | Bacterial Biotransformation [7] | Bacterial Biotransformation [8] | Bacterial Biotransformation [9] | Bacterial Biotransformation [10] | Bacterial Biotransformation [11] | Bacterial Biotransformation [12] | Bacterial Biotransformation [13] | Bacterial Biotransformation [14] | Bacterial Biotransformation [15] | Bacterial Biotransformation [16] | Bacterial Biotransformation [17] | Bacterial Biotransformation [18] | Bacterial Biotransformation [19] | Bacterial Biotransformation [20]
CN1CCC(=C2c3ccccc3CCc3cccnc32)CC1.O=C(O)/C=C\C(=O)O.O=C(O)/C=C\C(=O)O [AZATADINE MALEATE] | Compound NOT metabolized | Compound NOT metabolized | Compound NOT metabolized | Compound NOT metabolized | Compound NOT metabolized | Compound NOT metabolized | Compound NOT metabolized | Compound NOT metabolized | Compound metabolized | Compound NOT metabolized | Compound NOT metabolized | Compound NOT metabolized | Compound NOT metabolized | Compound NOT metabolized | Compound NOT metabolized | Compound NOT metabolized | Compound NOT metabolized | Compound NOT metabolized | Compound NOT metabolized | Compound NOT metabolized
Cc1ccnc2c1NC(=O)c1cccnc1N2C1CC1 [NEVIRAPINE] | Compound metabolized | Compound metabolized | Compound NOT metabolized | Compound NOT metabolized | Compound NOT metabolized | Compound NOT metabolized | Compound NOT metabolized | Compound metabolized | Compound metabolized | Compound NOT metabolized | Compound metabolized | Compound NOT metabolized | Compound NOT metabolized | Compound metabolized | Compound metabolized | Compound NOT metabolized | Compound NOT metabolized | Compound metabolized | Compound NOT metabolized | Compound NOT metabolized
CC(C)N(CCC(C(N)=O)(c1ccccc1)c1ccccn1)C(C)C.O=P(O)(O)O (stereo not given) [DISOPYRAMIDE PHOSPHATE] | Compound metabolized | Compound NOT metabolized | Compound NOT metabolized | Compound NOT metabolized | Compound NOT metabolized | Compound NOT metabolized | Compound NOT metabolized | Compound NOT metabolized | Compound NOT metabolized | Compound NOT metabolized | Compound NOT metabolized | Compound NOT metabolized | Compound NOT metabolized | Compound metabolized | Compound NOT metabolized | Compound NOT metabolized | Compound NOT metabolized | Compound NOT metabolized | Compound NOT metabolized | Compound NOT metabolized
CC(=O)CC(c1ccccc1)c1c(O)c2ccccc2oc1=O (stereo not given) [WARFARIN] | Compound metabolized | Compound metabolized | Compound metabolized | Compound metabolized | Compound metabolized | Compound NOT metabolized | Compound NOT metabolized | Compound metabolized | Compound metabolized | Compound metabolized | Compound metabolized | Compound metabolized | Compound metabolized | Compound metabolized | Compound metabolized | Compound metabolized | Compound NOT metabolized | Compound metabolized | Compound NOT metabolized | Compound NOT metabolized
CS(=O)(=O)O.OC(CCN1CCCCC1)(c1ccccc1)c1ccccc1 [PRIDINOL METHANESULFONATE] | Compound metabolized | Compound metabolized | Compound NOT metabolized | Compound NOT metabolized | Compound NOT metabolized | Compound NOT metabolized | Compound NOT metabolized | Compound NOT metabolized | Compound metabolized | Compound metabolized | Compound metabolized | Compound NOT metabolized | Compound NOT metabolized | Compound metabolized | Compound metabolized | Compound NOT metabolized | Compound NOT metabolized | Compound metabolized | Compound NOT metabolized | Compound NOT metabolized
O=P(O)(O)O.c1ccc(CN(CC2=NCCN2)c2ccccc2)cc1 [ANTAZOLINE PHOSPHATE] | Compound NOT metabolized | Compound metabolized | Compound metabolized | Compound NOT metabolized | Compound NOT metabolized | Compound NOT metabolized | Compound NOT metabolized | Compound NOT metabolized | Compound NOT metabolized | Compound NOT metabolized | Compound metabolized | Compound NOT metabolized | Compound NOT metabolized | Compound metabolized | Compound metabolized | Compound NOT metabolized | Compound NOT metabolized | Compound metabolized | Compound NOT metabolized | Compound NOT metabolized
COCCc1ccc(OCC(O)CNC(C)C)cc1.COCCc1ccc(OCC(O)CNC(C)C)cc1.O=C(O)C(O)C(O)C(=O)O (stereo not given) [METOPROLOL TARTRATE] | Compound metabolized | Compound metabolized | Compound NOT metabolized | Compound NOT metabolized | Compound NOT metabolized | Compound NOT metabolized | Compound NOT metabolized | Compound NOT metabolized | Compound NOT metabolized | Compound NOT metabolized | Compound NOT metabolized | Compound NOT metabolized | Compound NOT metabolized | Compound metabolized | Compound NOT metabolized | Compound metabolized | Compound metabolized | Compound metabolized | Compound NOT metabolized | Compound NOT metabolized
OCCN1CCN(CCCN2c3ccccc3Sc3ccc(C(F)(F)F)cc32)CC1 [FLUPHENAZINE] | Compound metabolized | Compound metabolized | Compound metabolized | Compound metabolized | Compound metabolized | Compound NOT metabolized | Compound metabolized | Compound metabolized | Compound metabolized | Compound NOT metabolized | Compound metabolized | Compound metabolized | Compound metabolized | Compound metabolized | Compound metabolized | Compound metabolized | Compound NOT metabolized | Compound metabolized | Compound metabolized | Compound NOT metabolized
